Source: ChEMBL document CHEMBL1201862, “PubChem BioAssay data set” (2004)
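Interpolation was linear, between the two tested concentrations surrounding the appropriate level; five concentrations were tested over 48 hours in 96-well plates. Here, GI50 denotes the concentration required for 50% inhibition of growth.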 Activity calls are given as the source filed them. Cut-off read from the data, not from the text of the source: active = GI50 up to about 1.1 µM and inactive = higher.

Assays:
Test in all cases: growth of human tumour cells (NCI), 48 h
A549 = system: A549
CCRF-CEM = system: CCRF-CEM
DMS-273 = system: DMS-273
EKVX = system: EKVX
HCC 2998 = system: HCC 2998
HOP-92 = system: HOP-92
HT-29 = system: HT-29
KM12 = system: KM12
OVCAR-3 = system: OVCAR-3
OVCAR-4 = system: OVCAR-4
SK-MEL-2 = system: SK-MEL-2
SK-MEL-5 = system: SK-MEL-5
SK-OV-3 = system: SK-OV-3
SN12C = system: SN12C
ACHN = system: ACHN
NCI-H522 = system: NCI-H522
SNB-19 = system: SNB-19

Measured: GI50

O=C1[C@@H]2C(c3ccc(Cl)cc3Cl)=NO[C@@H]2C(=O)N1c1ccc(Cc2ccc(N3C(=O)[C@H]4C(c5ccc(Cl)cc5Cl)=NO[C@H]4C3=O)cc2)cc1
inactive: A549 > 100 µM | CCRF-CEM 12.9 µM | DMS-273 > 100 µM | EKVX > 100 µM | HCC 2998 > 100 µM | HOP-92 17.7 µM | HT-29 > 100 µM | KM12 > 100 µM | OVCAR-3 61 µM | OVCAR-4 > 100 µM | SK-MEL-2 > 100 µM | SK-MEL-5 52.1 µM | SK-OV-3 > 100 µM | SN12C 54 µM

Cc1cc(NS(=O)(=O)c2ccc(NC(=O)c3cccc4c(Nc5ccc(S(=O)(=O)Nc6cc(C)on6)cc5)c5ccccc5nc34)cc2)no1
inactive: A549 > 100 µM | ACHN > 100 µM | CCRF-CEM 35.6 µM | DMS-273 > 100 µM | EKVX > 100 µM | HOP-92 17.5 µM | HT-29 > 100 µM | KM12 > 100 µM | NCI-H522 20 µM | OVCAR-3 87.3 µM | OVCAR-4 17.2 µM | SK-MEL-2 30.3 µM | SK-MEL-5 69.2 µM | SK-OV-3 > 100 µM | SN12C 39.4 µM | SNB-19 32.7 µM

Cc1cc2c(c3c1c1ccccc1n3C)C(=O)c1ccccc1C2=O
inactive: A549 > 100 µM | ACHN > 100 µM | CCRF-CEM > 100 µM | DMS-273 > 100 µM | EKVX > 100 µM | HCC 2998 > 100 µM | HOP-92 16.9 µM | HT-29 > 100 µM | KM12 > 100 µM | NCI-H522 75.3 µM | OVCAR-3 > 100 µM | OVCAR-4 > 100 µM | SK-MEL-2 > 100 µM | SK-MEL-5 > 100 µM | SN12C > 100 µM | SNB-19 > 100 µM

Cc1ccccc1CN1CC=c2ccccc2=N1
inactive: A549 93.5 µM | ACHN > 100 µM | CCRF-CEM > 100 µM | DMS-273 > 100 µM | EKVX 93.5 µM | HCC 2998 > 100 µM | HOP-92 > 100 µM | HT-29 > 100 µM | KM12 > 100 µM | OVCAR-3 > 100 µM | OVCAR-4 > 100 µM | SK-MEL-2 > 100 µM | SK-MEL-5 97.9 µM | SK-OV-3 > 100 µM | SN12C > 100 µM | SNB-19 > 100 µM

CC1C[C@H](OC(N)=O)C(C)CC1=O (some centres not stated)
inactive: A549 > 100 µM | ACHN > 100 µM | CCRF-CEM > 100 µM | DMS-273 > 100 µM | EKVX > 100 µM | HCC 2998 > 100 µM | HOP-92 30.2 µM | HT-29 > 100 µM | KM12 > 100 µM | OVCAR-3 > 100 µM | OVCAR-4 > 100 µM | SK-MEL-2 > 100 µM | SK-MEL-5 > 100 µM | SK-OV-3 > 100 µM | SN12C > 100 µM | SNB-19 > 100 µM

COc1cc(CCc2ccc(OC(C)=O)cc2)cc(OC)c1OC
inactive: A549 > 100 µM | ACHN 79.4 µM | CCRF-CEM > 100 µM | DMS-273 > 100 µM | EKVX > 100 µM | HOP-92 49 µM | HT-29 > 100 µM | KM12 > 100 µM | NCI-H522 52 µM | OVCAR-3 > 100 µM | OVCAR-4 > 100 µM | SK-MEL-5 > 100 µM | SN12C > 100 µM | SNB-19 > 100 µM
